In patent publication US6355799B1, “Substituted benzene compounds, process for their preparation, and herbicidal and defoliant compositions containing them” (ISK Americas Incorporated, priority 1997, dated 2002):

Tests used:
Type in all cases: in vivo
[1] = tested on: sicklepod (Cassia obtusifolia, CASOB); experiment: Pre-emerge test, greenhouse herbicide activity screening; settings: rated 14 days after application, 0 = no damage, 100 = complete death
Procedure, shortened: (§1)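 Rating: 0–100 visual injury, 14 DAA. Application: acetone, 187 l/ha, 15–1000 g ai/ha, flat-fan track sprayer with nozzle 40–45 cm above soil or canopy. Post-emerge runs used 0.25% v/v surfactant on 2–3 leaf plants.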

[2] = tested on: green foxtail (Setaria viridis, SETVI); experiment: as above; settings: rated 14 days after application, 0 = no damage, 100 = complete death
Procedure, shortened: as §1

[3] = tested on: johnsongrass (Sorghum halepense, SORHA); experiment: as above; settings: rated 14 days after application, 0 = no damage, 100 = complete death
Procedure, shortened: as §1

[4] = tested on: velvetleaf (Abutilon theophrasti, ABUTH); experiment: as above; settings: rated 14 days after application, 0 = no damage, 100 = complete death
Procedure, shortened: as §1

[5] = tested on: large crabgrass (Digitaria sanguinalis, DIGSA); experiment: as above; settings: rated 14 days after application, 0 = no damage, 100 = complete death
Procedure, shortened: as §1

[6] = tested on: lambsquarters (Chenopodium album, CHEAL); experiment: as above; settings: rated 14 days after application, 0 = no damage, 100 = complete death
Procedure, shortened: as §1

[7] = tested on: barnyardgrass (Echinochloa crus-galli, ECHCG); experiment: as above; settings: rated 14 days after application, 0 = no damage, 100 = complete death
Procedure, shortened: as §1

[8] = tested on: ivyleaf morningglory (Ipomoea hederacea, IPOHE); experiment: as above; settings: rated 14 days after application, 0 = no damage, 100 = complete death
Procedure, shortened: as §1

[9] = tested on: redroot pigweed (Amaranthus retroflexus, AMARE); experiment: Post-emerge test, greenhouse herbicide activity screening; settings: post-emerge, 14 days after application, rating scale 0-100
Procedure, shortened: (§2)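 Fourteen days after spraying, crop and weed injury was graded visually from 0, no effect, to 100, every plant dead. Test substances were dissolved in acetone and applied at 15–1000 g ai/ha with a flat-fan nozzle. Application was either pre-emergence, one day after sowing, or post-emergence at the 2–3 leaf stage.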

[10] = tested on: sicklepod (Cassia obtusifolia, CASOB); experiment: as above; settings: post-emerge, 14 days after application, rating scale 0-100
Procedure, shortened: as §2

[11] = tested on: green foxtail (Setaria viridis, SETVI); experiment: as above; settings: post-emerge, 14 days after application, rating scale 0-100
Procedure, shortened: as §2

[12] = tested on: johnsongrass (Sorghum halepense, SORHA); experiment: as above; settings: post-emerge, 14 days after application, rating scale 0-100
Procedure, shortened: as §2

[13] = tested on: velvetleaf (Abutilon theophrasti, ABUTH); experiment: as above; settings: post-emerge, 14 days after application, rating scale 0-100
Procedure, shortened: as §2

[14] = tested on: large crabgrass (Digitaria sanguinalis, DIGSA); experiment: as above; settings: post-emerge, 14 days after application, rating scale 0-100
Procedure, shortened: as §2

[15] = tested on: lambsquarters (Chenopodium album, CHEAL); experiment: as above; settings: post-emerge, 14 days after application, rating scale 0-100
Procedure, shortened: as §2

[16] = tested on: barnyardgrass (Echinochloa crus-galli, ECHCG); experiment: as above; settings: post-emerge, 14 days after application, rating scale 0-100
Procedure, shortened: as §2

[17] = tested on: ivyleaf morningglory (Ipomoea hederacea, IPOHE); experiment: as above; settings: post-emerge, 14 days after application, rating scale 0-100
Procedure, shortened: as §2

[18] = tested on: field corn (Zea mays L., var. Dekalb 535, CORN); experiment: Post-emerge test, crop safety; settings: post-emerge, 14 days after application, rating scale 0-100
Procedure, shortened: (§3)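 Plants grown in 10 cm pots of sandy loam mix received acetone-dissolved compounds through a moving flat-fan nozzle. Doses ranged from 15 to 1000 g ai/ha. Pre-emerge pots were seeded one day earlier, post-emerge pots 8–21 days earlier. Fourteen days on, each pot was graded 0–100 for damage.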

[19] = tested on: upland rice (Oryza sp., var. Tebonnet, RICE); experiment: Post-emerge test, crop safety; settings: post-emerge, 14 days after application, rating scale 0-100
Procedure, shortened: as §3

[20] = tested on: redroot pigweed (Amaranthus retroflexus, AMARE); experiment: Pre-emerge test, greenhouse herbicide activity screening; settings: rated 14 days after application, 0 = no damage, 100 = complete death
Procedure, shortened: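 Herbicidal damage is scored 0 (none) to 100 (complete plant death) two weeks after a simulated field spray. Rates span 15–1000 g ai/ha, delivered in acetone at 187 l/ha. For post-emergence treatments, plants have 2–3 leaves and the spray carries 0.25% v/v non-ionic surfactant.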

[21] = tested on: field corn (Zea mays L., var. Dekalb 535, CORN); experiment: Pre-emerge test, crop safety; settings: rated 14 days after application, 0 = no damage, 100 = complete death
Procedure, shortened: (§4)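 Sandy loam pots; pre-emerge: sown 1 d pre-spray, surface-watered after, then bottom-watered. Post-emerge: sown 8–21 d before, 2–3 leaf stage, + 0.25% v/v NIS, bottom-watered. Acetone, 187 l/ha track spray, 15–1000 g ai/ha. 0–100 injury score, day 14.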

[22] = tested on: upland rice (Oryza sp., var. Tebonnet, RICE); experiment: Pre-emerge test, crop safety; settings: rated 14 days after application, 0 = no damage, 100 = complete death
Procedure, shortened: as §4

Q: `COc1c(Cl)cc(F)c(-n2c(=O)cc(C(F)(F)F)n(C)c2=O)c1NC(=O)C(C)=Cc1ccccc1` [2-81] was tested. Which “Pre-emerge Herbicidal Activity, phytotoxicity rating (0-100), CASOB” value ([1]; 63 g ai/ha) did it give?
A: 90

Q: And the “Pre-emerge Herbicidal Activity, phytotoxicity rating (0-100), CASOB” value ([1]; 250 g ai/ha)?
A: 100

Q: And the “Pre-emerge Herbicidal Activity, phytotoxicity rating (0-100), SETVI” value ([2]; 63 g ai/ha)?
A: 100

Q: And the “Pre-emerge Herbicidal Activity, phytotoxicity rating (0-100), SETVI” value ([2]; 250 g ai/ha)?
A: 100

Q: And the “Pre-emerge Herbicidal Activity, phytotoxicity rating (0-100), SORHA” value ([3]; 63 g ai/ha)?
A: 90

Q: What about the “Pre-emerge Herbicidal Activity, phytotoxicity rating (0-100), SORHA” value ([3]; 250 g ai/ha) of the same compound?
A: 90

Q: And the “Pre-emerge Herbicidal Activity, phytotoxicity rating (0-100), ABUTH” value ([4]; 63 g ai/ha)?
A: 100

Q: What about the “Pre-emerge Herbicidal Activity, phytotoxicity rating (0-100), ABUTH” value ([4]; 250 g ai/ha) of the same compound?
A: 100

Q: What about the “Pre-emerge Herbicidal Activity, phytotoxicity rating (0-100), DIGSA” value ([5]; 63 g ai/ha) of the same compound?
A: 100

Q: And the “Pre-emerge Herbicidal Activity, phytotoxicity rating (0-100), DIGSA” value ([5]; 250 g ai/ha)?
A: 100

Q: And the “Pre-emerge Herbicidal Activity, phytotoxicity rating (0-100), CHEAL” value ([6]; 63 g ai/ha)?
A: 100

Q: And the “Pre-emerge Herbicidal Activity, phytotoxicity rating (0-100), CHEAL” value ([6]; 250 g ai/ha)?
A: 100

Q: What about the “Pre-emerge Herbicidal Activity, phytotoxicity rating (0-100), ECHCG” value ([7]; 63 g ai/ha) of the same compound?
A: 70

Q: And the “Pre-emerge Herbicidal Activity, phytotoxicity rating (0-100), ECHCG” value ([7]; 250 g ai/ha)?
A: 100

Q: What about the “Pre-emerge Herbicidal Activity, phytotoxicity rating (0-100), IPOHE” value ([8]; 63 g ai/ha) of the same compound?
A: 60

Q: What about the “Pre-emerge Herbicidal Activity, phytotoxicity rating (0-100), IPOHE” value ([8]; 250 g ai/ha) of the same compound?
A: 100

Q: And the “phytotoxicity rating AMARE” value ([9]; 63 g ai/ha)?
A: 100

Q: And the “phytotoxicity rating AMARE” value ([9]; 250 g ai/ha)?
A: 100

Q: What about the “phytotoxicity rating CASOB” value ([10]; 63 g ai/ha) of the same compound?
A: 70

Q: And the “phytotoxicity rating CASOB” value ([10]; 250 g ai/ha)?
A: 100

Q: And the “phytotoxicity rating SETVI” value ([11]; 63 g ai/ha)?
A: 40

Q: And the “phytotoxicity rating SETVI” value ([11]; 250 g ai/ha)?
A: 60

Q: What about the “phytotoxicity rating SORHA” value ([12]; 63 g ai/ha) of the same compound?
A: 20

Q: What about the “phytotoxicity rating SORHA” value ([12]; 250 g ai/ha) of the same compound?
A: 80

Q: And the “phytotoxicity rating ABUTH” value ([13]; 63 g ai/ha)?
A: 100

Q: What about the “phytotoxicity rating ABUTH” value ([13]; 250 g ai/ha) of the same compound?
A: 100

Q: What about the “phytotoxicity rating DIGSA” value ([14]; 63 g ai/ha) of the same compound?
A: 20

Q: And the “phytotoxicity rating DIGSA” value ([14]; 250 g ai/ha)?
A: 80

Q: And the “phytotoxicity rating CHEAL” value ([15]; 63 g ai/ha)?
A: 90

Q: What about the “phytotoxicity rating CHEAL” value ([15]; 250 g ai/ha) of the same compound?
A: 100

Q: What about the “phytotoxicity rating ECHCG” value ([16]; 63 g ai/ha) of the same compound?
A: 50

Q: And the “phytotoxicity rating ECHCG” value ([16]; 250 g ai/ha)?
A: 90

Q: And the “phytotoxicity rating IPOHE” value ([17]; 63 g ai/ha)?
A: 100

Q: What about the “phytotoxicity rating IPOHE” value ([17]; 250 g ai/ha) of the same compound?
A: 100

Q: What about the “phytotoxicity rating CORN” value ([18]; 63 g ai/ha) of the same compound?
A: 30

Q: What about the “phytotoxicity rating CORN” value ([18]; 250 g ai/ha) of the same compound?
A: 90

Q: And the “phytotoxicity rating RICE” value ([19]; 63 g ai/ha)?
A: 60

Q: And the “phytotoxicity rating RICE” value ([19]; 250 g ai/ha)?
A: 90

Q: What about the “Pre-emerge Herbicidal Activity, phytotoxicity rating (0-100), AMARE” value ([20]; 63 g ai/ha) of the same compound?
A: 100

Q: What about the “Pre-emerge Herbicidal Activity, phytotoxicity rating (0-100), AMARE” value ([20]; 250 g ai/ha) of the same compound?
A: 100

Q: And the “Pre-emerge phytotoxicity rating (0-100), crop damage, CORN” value ([21]; 63 g ai/ha)?
A: 0

Q: What about the “Pre-emerge phytotoxicity rating (0-100), crop damage, CORN” value ([21]; 250 g ai/ha) of the same compound?
A: 90

Q: What about the “Pre-emerge phytotoxicity rating (0-100), crop damage, RICE” value ([22]; 63 g ai/ha) of the same compound?
A: 70

Q: What about the “Pre-emerge phytotoxicity rating (0-100), crop damage, RICE” value ([22]; 250 g ai/ha) of the same compound?
A: 90
